Measurements published in patent publication US10807959B2, “WDR5-MLL1 inhibitors and modulators” (Vanderbilt University, priority 2018, dated 2020).

Target: WDR5 (Homo sapiens (Human), UniProt P61964)
Experiment: Fluorescence polarization anisotropy (FPA) competition assay, displacement of FITC-MLL or 10mer-Thr-FAM peptide
Type: binding
Source text: The assay is run in 384-well format and is read on a BioTek Cytation. […] Replicate values are fit to a 4-parameter fit in XLFit to generate a single IC50 value for each compound that is then converted to a Ki value. Experiments are repeated to generate a 2nd, independent Ki value; values from the two experiments are averaged to produce the reported Ki value for the compound.

[1] = Inhibition of WDR5 by FPA assay
[2] = Table B2, WDR5 WIN-site binding affinity, values not less than 1 nM (FPA)

| SMILES | Ki [2] [nM] | further results |
| --- | --- | --- |
| Cc1cc(CNC(=O)c2cc(Cn3ccnc3)cc(OC3CCCC3)c2)ccc1Cl [Example 115, 3-((1H-Imidazol-1-yl)methyl)-N-(4-chloro-3-methylbenzyl)-5-(cyclopentyloxy)benzamide] |  | Ki [1]: 3.5 nM |
| COc1cc(CNC(=O)c2cc(Cn3ccnc3)cc(Oc3ccccc3)c2)cc(OC)c1 [Example 120, 3-((1H-imidazol-1-yl)methyl)-N-(3,5-dimethoxybenzyl)-5-phenoxybenzamide] |  | Ki [1]: 5.1 nM |
| Cc1ccncc1-c1cc(Cn2ccnc2)cc(C(=O)NCc2ccc(Cl)c(Cl)c2)c1 [Example 121, 3-((1H-imidazol-1-yl)methyl)-N-(3,4-dichlorobenzyl)-5-(4-methylpyridin-3-yl)benzamide] |  | Ki [1]: 1.3 nM |
| Cc1cc(-c2cc(Cn3ccnc3)cc(C(=O)NCc3ccc(Cl)c(Cl)c3)c2)ccn1 [Example 123, 3-((1H-Imidazol-1-yl)methyl)-N-(3,4-dichlorobenzyl)-5-(2-methylpyridin-4-yl)benzamide] |  | Ki [1]: 8.7 nM |
| COc1cncc(-c2cc(Cn3ccnc3)cc(C(=O)NCc3ccc(Cl)c(Cl)c3)c2)c1 [Example 128, 3-((1H-Imidazol-1-yl)methyl)-N-(3,4-dichlorobenzyl)-5-(5-methoxypyridin-3-yl)benzamide] |  | Ki [1]: 2.2 nM |
| COc1cc(CNC(=O)c2cc(Cn3ccnc3)cc(-c3ccoc3C)c2)cc(OC)c1 [Example 130, 3-((1H-Imidazol-1-yl)methyl)-N-(3,5-dimethoxybenzyl)-5-(2-methylfuran-3-yl)benzamide] |  | Ki [1]: 2.1 nM |
| Cc1nc(F)ccc1-c1cc(Cn2ccnc2)cc(C(=O)NC(C)C2CCCCC2)c1 (stereo not drawn) [Example 132, 3-((1H-Imidazol-1-yl)methyl)-N-(1-cyclohexylethyl)-5-(6-fluoro-2-methylpyridin-3-yl)benzamide] |  | Ki [1]: 3.9 nM |
| O=C(NCc1ccc(Cl)c(Cl)c1)c1cc(Cn2ccnc2C(F)(F)F)cc(-c2ccc(F)cc2Cl)c1 [Example 135, 2′-Chloro-N-(3,4-dichlorobenzyl)-4′-fluoro-5-((2-(trifluoromethyl)-1H-imidazol-1-yl)methyl)-[1,1′-biphenyl]-3-carboxamide] |  | Ki [1]: > 10000 nM |
| O=C(NCc1ccc(Cl)c(Cl)c1)c1cc(Cn2ccnc2)cc(N2CCCC2)c1 [Example 136, 3-((1H-Imidazol-1-yl)methyl)-N-(3,4-dichlorobenzyl)-5-(pyrrolidin-1-yl)benzamide] |  | Ki [1]: 6.5 nM |
| CC(C)(NC(=O)c1cc(Cn2ccnc2)cc(-c2ccc(F)cc2Cl)n1)C1CC1 [Example 149, 4-((1H-imidazol-1-yl)methyl)-6-(2-chloro-4-fluorophenyl)-N-(2-cyclopropylpropan-2-yl)picolinamide] |  | Ki [1]: 8.6 nM |
| CCC(NC(=O)c1cc(Cn2ccnc2)cc(-c2ccc(F)cc2Cl)n1)C1CC1 (stereo not drawn) [Example 152, 4-((1H-Imidazol-1-yl)methyl)-6-(2-chloro-4-fluorophenyl)-N-(1-cyclopropylpropyl)picolinamide] |  | Ki [1]: 13.1 nM |
| Cc1cc(C)cc(CNC(=O)c2cc(Cn3ccnc3)cc(-c3ccc(F)cc3Cl)n2)c1 [Example 153, 4-((1H-Imidazol-1-yl)methyl)-6-(2-chloro-4-fluorophenyl)-N-(3,5-dimethylbenzyl)picolinamide] |  | Ki [1]: 4.8 nM |
| COc1cc(OC)cc(C(C)NC(=O)c2cc(Cn3ccnc3)cc(-c3ccc(F)cc3Cl)n2)c1 (stereo not drawn) [Example 154, 4-((1H-Imidazol-1-yl)methyl)-6-(2-chloro-4-fluorophenyl)-N-(1-(3,5-dimethoxyphenyl)ethyl)picolinamide] |  | Ki [1]: 5.1 nM |
| O=C(NCc1cc(Cl)cc(Cl)c1)c1cccc(CNC2=NCCN2)c1 [Example B1, N-(3,5-dichlorobenzyl)-3-(((4,5-dihydro-1H-imidazol-2-yl)amino)methyl)benzamide] | 18 |  |
| CC(C)N(Cc1cccc(Cl)c1)C(=O)c1cccc(CNC2=NCCN2)c1 [Example B2] | 400 |  |
| O=C(NCc1ccc(Cl)c(Cl)c1)c1cccc(CNC2=NCCN2)c1 [Example B3] | 209 |  |
| Cc1cc(CNC(=O)c2cccc(CNC3=NCCN3)c2)ccc1Cl [Example B4] | 11.9 |  |
| Cc1cc(C)cc(CNC(=O)c2ccc(F)c(CNC3=NCCN3)c2)c1 [Example B7] | 8.46 |  |
| O=C(NCc1ccc(Cl)c(Cl)c1)c1cc(Cl)cc(CNC2=NCCN2)c1 [Example B8] | 10.7 |  |
| O=C(NCc1cc(Cl)cc(Cl)c1)c1cc(Cl)cc(CNC2=NCCN2)c1 [Example B9] | 17.4 |  |
| Cc1ccc(CNC(=O)c2cc(Cl)cc(CNC3=NCCN3)c2)cc1Cl [Example B10] | 54.5 |  |

| SMILES | Ki [2] [nM] | further results |
| --- | --- | --- |
| Cc1cc(C)cc(CNC(=O)c2cc(Cl)cc(CNC3=NCCN3)c2)c1 [Example B11] | 46 |  |
| CC(NC(=O)c1cc(Cl)cc(CNC2=NCCN2)c1)c1cccc(Cl)c1 (stereo not drawn) [Example B12] | 65.1 |  |
| O=C(NCc1cc(Cl)ccn1)c1ccc(F)c(CNC2=NCCN2)c1 [Example B16] | 9.05 |  |
| O=C(NCc1cc(Cl)cc(Cl)c1)c1ccc(F)c(CNC2=NCCN2)c1 [Example B17] | 2.47 |  |
| COc1cc(OC)cc(C(C)NC(=O)c2ccc(F)c(CNC3=NCCN3)c2)c1 (stereo not drawn) [Example B18] | 1.81 |  |
| COc1ccc(CNC(=O)c2ccc(F)c(CNC3=NCCN3)c2)cc1OC [Example B19] | 8.06 |  |
| Cc1ccnc(C(NC(=O)c2ccc(F)c(CNC3=NCCN3)c2)C2CC2)c1 (stereo not drawn) [Example B20] | 4.6 |  |
| COc1ccnc(CNC(=O)c2ccc(F)c(CNC3=NCCN3)c2)c1 [Example B22] | 1.5 |  |
| O=C(NCc1ccc(Cl)cn1)c1ccc(F)c(CNC2=NCCN2)c1 [Example B23] | 30.3 |  |
| COc1cc(CN(C)C(=O)c2ccc(F)c(CNC3=NCCN3)c2)cc(OC)c1 [Example B24] | 49.8 |  |
| COc1cccc(CNC(=O)c2ccc(F)c(CNC3=NCCN3)c2)n1 [Example B25] | 74.2 |  |
| COc1ccc(C(=O)NCc2ccc(F)c(CNC3=NCCN3)c2)cc1Cl [Example B26] | 3.24 |  |
| COc1cc(CNC(=O)c2ccc(OC)c(CNC3=NCCN3)c2)cc(OC)c1 [Example B27, 3-(((4,5-dihydro-1H-imidazol-2-yl)amino)methyl)-N-(3,5-dimethoxybenzyl)-4-methoxybenzamide] | 7.52 |  |
| Cc1ccnc(CNC(=O)c2ccc(F)c(CNC3=NCCN3)c2)c1 [Example B29] | 24.9 |  |
| Cc1cc(C)cc(CNC(=O)c2cc(F)c(F)c(CNC3=NCCN3)c2)c1 [Example B31] | 8.11 |  |
| COc1ccc(CNC(=O)c2cc(F)c(F)c(CNC3=NCCN3)c2)cc1Cl [Example B32] | 4.51 |  |
| COc1ccnc(CNC(=O)c2cc(F)c(F)c(CNC3=NCCN3)c2)c1 [Example B34] | 12 |  |
| COc1cc(OC)cc(C(C)NC(=O)c2cc(F)c(F)c(CNC3=NCCN3)c2)c1 (stereo not drawn) [Example B35] | 4.22 |  |
| COc1cc(CNC(=O)c2cc(CNC3=NCCN3)ccc2F)cc(OC)c1 [Example B37] | 8.71 |  |
| COc1cc(CNC(=O)c2ccc(OC)c(CNC3=NCCN3)c2)ccc1Cl [Example B38] | 24.5 |  |
| COc1ccc(C(=O)NCc2cc(Cl)ccn2)cc1CNC1=NCCN1 [Example B39] | 1.39 |  |

| SMILES | Ki [2] [nM] | further results |
| --- | --- | --- |
| COc1ccnc(CNC(=O)c2ccc(OC)c(CNC3=NCCN3)c2)c1 [Example B40] | 7.21 |  |
| COc1ccc(C(=O)NCc2ccc(Cl)c(F)c2)cc1CNC1=NCCN1 [Example B41] | 1.76 |  |
| COc1ccc(C(=O)NCc2ccc(Cl)c(C)c2)cc1CNC1=NCCN1 [Example B42] | 1.51 |  |
| COc1cc(OC)cc(C(C)NC(=O)c2ccc(OC)c(CNC3=NCCN3)c2)c1 (stereo not drawn) [Example B43] | 1.82 |  |
| COc1ccc(C(=O)NCc2ccc(Cl)cn2)cc1CNC1=NCCN1 [Example B44] | 20.3 |  |
| Cc1cc(C)nc(CNC(=O)c2ccc(F)c(CNC3=NCCN3)c2)n1 [Example B45] | 11.3 |  |
| Cc1cnc(CNC(=O)c2ccc(F)c(CNC3=NCCN3)c2)cn1 [Example B46] | 3.96 |  |
| Cc1ccnc(C(NC(=O)c2cc(CNC3=NCCN3)c(F)cc2F)C2CC2)c1 (stereo not drawn) [Example B48] | 2.17 |  |
| COc1cc(OC)cc(C(C)NC(=O)c2cc(CNC3=NCCN3)c(F)cc2F)c1 (stereo not drawn) [Example B49] | 1.06 |  |
| CCOc1ccc(C(=O)NC(c2cc(C)ccn2)C2CC2)cc1CNC1=NCCN1 (stereo not drawn) [Example B50] | 12.4 |  |
| CCOc1ccc(C(=O)NC(C)c2cc(OC)cc(OC)c2)cc1CNC1=NCCN1 (stereo not drawn) [Example B51, 3-(((4,5-dihydro-1H-imidazol-2-yl)amino)methyl)-N-(1-(3,5-dimethoxyphenyl)ethyl)-4-ethoxybenzamides] | 9.77 |  |
| COc1cc(OC)cc(C(C)NC(=O)c2ccc(OC(C)C)c(CNC3=NCCN3)c2)c1 (stereo not drawn) [Example B52, 3-(((4,5-dihydro-1H-imidazol-2-yl)amino)methyl)-N-(1-(3,5-dimethoxyphenyl)ethyl)-4-isopropoxybenzamide] | 33 |  |
| CC(C)Oc1ccc(C(=O)NCc2ccc(Cl)c(Cl)c2)cc1CNC1=NCCN1 [Example B53] | 40.9 |  |
| O=C(NCc1ccc(Cl)c(Cl)c1)c1cc(CNC2=NCCN2)cc(-c2ccc(F)cc2Cl)c1 [Example B54] | 1.12 |  |
| Cc1cc(C)cc(CNC(=O)c2cc(CNC3=NCCN3)cc(-c3ccc(F)cc3Cl)c2)c1 [Example B55] | 1.27 |  |
| Cc1cc(CNC(=O)c2cc(CNC3=NCCN3)cc(-c3ccc(F)cc3Cl)c2)ccc1Cl [Example B58] | 2.06 |  |
| Cc1ccncc1-c1cc(CNC2=NCCN2)cc(C(=O)NCc2cccc(F)n2)c1 [Example B89] | 4.39 |  |
| Cc1cc(-c2cc(CNC3=NCCN3)cc(C(=O)NCc3cccc(F)n3)c2)ccn1 [Example B95] | 6.1 |  |
| COc1cc(OC)cc(C(C)NC(=O)c2ccc(OC(C)C)c(CNC3=NCCC3)c2)c1 (stereo not drawn) [Example B124] | > 33 |  |
| CC(C)Oc1ccc(C(=O)NCc2ccc(Cl)c(Cl)c2)cc1CNC1=NCCC1 [Example B125] | > 33 |  |
| COc1cc(OC)cc(C(C)NC(=O)c2cc(CNC3=NCCN3)ccn2)c1 (stereo not drawn) [Example C20, 4-(((4,5-dihydro-1H-imidazol-2-yl)amino)methyl)-N-(1-(3,5-dimethoxyphenyl)ethyl)picolinamide] |  | Ki (Table C2, WDR5 WIN-site binding affinity, values not less than 1 nM (FPA)): 30.3 nM |
